ChEMBL document CHEMBL5131499, “Design, synthesis and glycosidase inhibition of C-4 branched LAB and DAB derivatives” (Eur J Med Chem, 2022)

Tests used:
[1] = target: T1, Lysosomal alpha-glucosidase (Homo sapiens, UniProt P10253); experiment: Inhibition of human lysosomal alpha glucosidase assessed as release of p-nitrophenol using p-nitrophenyl glycoside as substrate by spectrometric assay
[2] = target: T2, Sucrase-isomaltase, intestinal (Rattus norvegicus, UniProt P23739); experiment: Inhibition of rat intestinal isomaltase assessed as release of p-nitrophenol using p-nitrophenyl glycoside as substrate by spectrometric assay
T2 sequence (P23739 1-1013 limits assumed): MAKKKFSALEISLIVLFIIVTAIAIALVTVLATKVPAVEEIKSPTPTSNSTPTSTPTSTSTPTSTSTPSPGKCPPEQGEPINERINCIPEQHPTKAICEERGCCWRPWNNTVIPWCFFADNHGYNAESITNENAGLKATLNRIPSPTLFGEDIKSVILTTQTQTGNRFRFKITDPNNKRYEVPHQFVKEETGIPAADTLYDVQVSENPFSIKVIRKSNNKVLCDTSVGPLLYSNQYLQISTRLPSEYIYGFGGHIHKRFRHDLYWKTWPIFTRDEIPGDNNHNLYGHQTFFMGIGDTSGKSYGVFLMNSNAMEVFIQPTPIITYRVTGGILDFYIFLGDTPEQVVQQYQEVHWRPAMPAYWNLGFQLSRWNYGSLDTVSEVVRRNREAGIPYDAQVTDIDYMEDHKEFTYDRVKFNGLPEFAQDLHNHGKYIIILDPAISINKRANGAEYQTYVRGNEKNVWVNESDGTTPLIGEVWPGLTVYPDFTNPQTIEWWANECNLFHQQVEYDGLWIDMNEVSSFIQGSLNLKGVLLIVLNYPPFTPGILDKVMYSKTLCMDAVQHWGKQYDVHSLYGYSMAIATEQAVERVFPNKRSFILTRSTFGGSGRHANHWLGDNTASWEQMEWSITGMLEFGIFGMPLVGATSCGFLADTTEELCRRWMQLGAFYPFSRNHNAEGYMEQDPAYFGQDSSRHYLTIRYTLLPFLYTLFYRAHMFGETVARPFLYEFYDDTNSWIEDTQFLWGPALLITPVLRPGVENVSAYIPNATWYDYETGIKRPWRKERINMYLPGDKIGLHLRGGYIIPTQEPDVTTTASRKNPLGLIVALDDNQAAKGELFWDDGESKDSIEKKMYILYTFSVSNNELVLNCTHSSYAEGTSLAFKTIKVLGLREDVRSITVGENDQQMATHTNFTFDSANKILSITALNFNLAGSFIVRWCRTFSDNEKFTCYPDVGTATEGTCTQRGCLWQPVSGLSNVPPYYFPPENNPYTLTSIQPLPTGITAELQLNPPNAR
T2 sequence (P23739 1014-1841 limits assumed): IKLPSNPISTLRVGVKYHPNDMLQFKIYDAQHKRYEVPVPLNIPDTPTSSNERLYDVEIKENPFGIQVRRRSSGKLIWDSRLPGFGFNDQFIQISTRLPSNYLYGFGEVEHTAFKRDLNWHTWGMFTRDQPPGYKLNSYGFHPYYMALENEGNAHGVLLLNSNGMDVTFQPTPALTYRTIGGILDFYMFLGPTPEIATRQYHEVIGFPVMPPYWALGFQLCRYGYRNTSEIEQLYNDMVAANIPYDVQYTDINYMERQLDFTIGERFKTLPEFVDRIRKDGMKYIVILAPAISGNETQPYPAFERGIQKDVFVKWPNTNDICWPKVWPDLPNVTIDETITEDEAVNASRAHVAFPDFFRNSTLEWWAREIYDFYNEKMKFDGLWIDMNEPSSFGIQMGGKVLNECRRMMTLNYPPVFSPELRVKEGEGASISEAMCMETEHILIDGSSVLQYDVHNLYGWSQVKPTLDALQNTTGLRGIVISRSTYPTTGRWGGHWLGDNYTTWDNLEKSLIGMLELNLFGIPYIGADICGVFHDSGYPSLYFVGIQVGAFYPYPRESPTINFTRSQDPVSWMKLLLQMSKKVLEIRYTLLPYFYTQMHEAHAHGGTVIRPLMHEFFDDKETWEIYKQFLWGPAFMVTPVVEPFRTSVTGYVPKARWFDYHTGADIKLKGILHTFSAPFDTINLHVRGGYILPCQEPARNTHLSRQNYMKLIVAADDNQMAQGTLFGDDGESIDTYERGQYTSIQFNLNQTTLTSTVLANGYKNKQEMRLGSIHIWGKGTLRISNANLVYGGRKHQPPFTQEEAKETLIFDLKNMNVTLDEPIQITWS

[3] = target: T2, Sucrase-isomaltase, intestinal; experiment: Inhibition of rat intestinal sucrase assessed as release of p-nitrophenol using p-nitrophenyl glycoside as substrate by spectrometric assay
[4] = Inhibition of bovine liver beta-glucosidase assessed as release of p-nitrophenol using p-nitrophenyl glycoside as substrate by spectrometric assay; set-up: species or system Bos taurus
Prunus dulcis = experiment: Inhibition of almond beta-glucosidase assessed as release of p-nitrophenol at 1000 uM using p-nitrophenyl glycoside as substrate by spectrometric assay relative to control
Bos taurus [5] = organism: Bos taurus; experiment: Inhibition of bovine liver beta-glucosidase assessed as release of p-nitrophenol at 1000 uM using p-nitrophenyl glycoside as substrate by spectrometric assay relative to control
Oryza sativa = experiment: Inhibition of rice alpha-glucosidase assessed as release of p-nitrophenol at 1000 uM using p-nitrophenyl glycoside as substrate by spectrometric assay relative to control
[6] = target: T3, Alpha-mannosidase (Canavalia ensiformis) (UniProt C0HJB3); experiment: Inhibition of jack bean alpha-mannosidase assessed as release of p-nitrophenol at 1000 uM using p-nitrophenyl glycoside as substrate by spectrometric assay relative to control
T3 sequence (whole entry): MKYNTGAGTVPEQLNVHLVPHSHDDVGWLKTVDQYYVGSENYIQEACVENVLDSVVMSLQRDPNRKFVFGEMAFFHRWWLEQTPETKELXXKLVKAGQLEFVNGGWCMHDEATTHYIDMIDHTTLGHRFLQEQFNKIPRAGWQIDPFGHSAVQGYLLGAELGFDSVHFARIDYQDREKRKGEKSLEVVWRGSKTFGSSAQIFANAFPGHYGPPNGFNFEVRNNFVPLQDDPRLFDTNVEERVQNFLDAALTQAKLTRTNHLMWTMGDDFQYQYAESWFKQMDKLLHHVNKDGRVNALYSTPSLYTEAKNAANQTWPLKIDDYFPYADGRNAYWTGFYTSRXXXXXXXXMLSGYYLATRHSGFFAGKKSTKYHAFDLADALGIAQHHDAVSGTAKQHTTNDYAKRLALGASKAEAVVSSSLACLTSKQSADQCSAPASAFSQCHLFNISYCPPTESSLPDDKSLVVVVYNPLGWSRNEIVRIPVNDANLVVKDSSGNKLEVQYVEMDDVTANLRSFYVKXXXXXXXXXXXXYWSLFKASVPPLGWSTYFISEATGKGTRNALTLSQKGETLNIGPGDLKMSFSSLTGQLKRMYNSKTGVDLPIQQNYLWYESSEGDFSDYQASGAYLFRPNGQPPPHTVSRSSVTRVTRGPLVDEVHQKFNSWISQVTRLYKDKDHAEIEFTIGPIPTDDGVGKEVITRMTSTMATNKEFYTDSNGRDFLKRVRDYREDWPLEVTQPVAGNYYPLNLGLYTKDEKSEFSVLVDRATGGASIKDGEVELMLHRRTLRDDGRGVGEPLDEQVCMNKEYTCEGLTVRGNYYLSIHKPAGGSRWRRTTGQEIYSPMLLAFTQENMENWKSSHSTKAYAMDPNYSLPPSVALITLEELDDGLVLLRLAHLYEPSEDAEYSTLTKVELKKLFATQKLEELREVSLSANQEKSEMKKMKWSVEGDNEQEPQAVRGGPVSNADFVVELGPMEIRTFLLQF

[7] = target: T4, Tissue alpha-L-fucosidase (Bos taurus) (UniProt Q2KIM0); experiment: Inhibition of bovine kidney alpha-L-fucosidase assessed as release of p-nitrophenol at 1000 uM using p-nitrophenyl glycoside as substrate by spectrometric assay relative to control
T4 sequence (whole entry): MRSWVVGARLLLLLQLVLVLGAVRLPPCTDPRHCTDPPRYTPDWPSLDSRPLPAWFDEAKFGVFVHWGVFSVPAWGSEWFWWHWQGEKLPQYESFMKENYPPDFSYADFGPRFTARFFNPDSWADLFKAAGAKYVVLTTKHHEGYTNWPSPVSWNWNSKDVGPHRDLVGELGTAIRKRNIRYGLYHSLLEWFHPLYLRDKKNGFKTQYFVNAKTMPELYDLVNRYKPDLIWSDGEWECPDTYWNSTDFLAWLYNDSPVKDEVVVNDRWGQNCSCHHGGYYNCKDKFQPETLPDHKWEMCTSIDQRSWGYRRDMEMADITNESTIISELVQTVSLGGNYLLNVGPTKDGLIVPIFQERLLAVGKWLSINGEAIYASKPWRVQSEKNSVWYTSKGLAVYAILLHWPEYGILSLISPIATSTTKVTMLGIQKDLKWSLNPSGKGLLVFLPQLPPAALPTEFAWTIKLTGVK

[8] = target: T1, Lysosomal alpha-glucosidase; experiment: Inhibition of human lysosomal alpha glucosidase assessed as release of p-nitrophenol at 1000 uM using p-nitrophenyl glycoside as substrate by spectrometric assay relative to control
Helix pomatia = experiment: Inhibition of snail beta-mannosidase assessed as release of p-nitrophenol at 1000 uM using p-nitrophenyl glycoside as substrate by spectrometric assay relative control
Penicillium decumbens = experiment: Inhibition of Penicillium decumbens alpha-L-rhamnosidase assessed as release of p-nitrophenol at 1000 uM using p-nitrophenyl glycoside as substrate by spectrometric assay relative to control
Saccharomyces cerevisiae = experiment: Inhibition of yeast alpha-glucosidase assessed as release of p-nitrophenol at 1000 uM using p-nitrophenyl glycoside as substrate by spectrometric assay relative to control
Sus scrofa = organism: Sus scrofa; experiment: Inhibition of porcine kidney alpha-trehalase assessed as release of p-nitrophenol at 1000 uM using p-nitrophenyl glycoside as substrate by spectrometric assay relative to control
Aspergillus niger = experiment: Inhibition of Aspergillus niger amyloglucosidase assessed as release of p-nitrophenol at 1000 uM using p-nitrophenyl glycoside as substrate by spectrometric assay relative to control
[9] = target: Alpha-galactosidase (Coffea arabica) (UniProt Q42656); experiment: Inhibition of coffee beans alpha-galactosidase assessed as release of p-nitrophenol at 1000 uM using p-nitrophenyl glycoside as substrate by spectrometric assay relative to control
Chain of Alpha-galactosidase (Coffea arabica) (Q42656 16-378 limits assumed): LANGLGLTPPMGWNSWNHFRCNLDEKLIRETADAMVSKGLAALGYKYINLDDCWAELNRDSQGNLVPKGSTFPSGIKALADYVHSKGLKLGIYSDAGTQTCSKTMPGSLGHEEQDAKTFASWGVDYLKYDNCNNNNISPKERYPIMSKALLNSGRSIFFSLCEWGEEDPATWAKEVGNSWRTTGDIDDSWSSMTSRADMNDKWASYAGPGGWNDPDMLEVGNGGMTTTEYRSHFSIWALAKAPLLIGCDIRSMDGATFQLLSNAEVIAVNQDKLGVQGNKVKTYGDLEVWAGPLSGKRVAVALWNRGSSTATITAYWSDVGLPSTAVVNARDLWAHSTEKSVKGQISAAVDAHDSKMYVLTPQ

Escherichia coli = experiment: Inhibition of Escherichia coli beta-glucuronidase assessed as release of p-nitrophenol at 1000 uM using p-nitrophenyl glycoside as substrate by spectrometric assay relative to control
Bos taurus [10] = organism: Bos taurus; experiment: Inhibition of bovine liver beta-galactosidase assessed as release of p-nitrophenol at 1000 uM using p-nitrophenyl glycoside as substrate by spectrometric assay relative to control
[11] = target: Sucrase-isomaltase, intestinal (Rattus norvegicus) (UniProt P23739); experiment: Inhibition of rat intestinal sucrase assessed as release of p-nitrophenol at 1000 uM using p-nitrophenyl glycoside as substrate by spectrometric assay relative to control
Chain of Sucrase-isomaltase, intestinal (Rattus norvegicus) (P23739 1-1013 limits assumed): as the sequence (P23739 1-1013 limits assumed) above
Chain of Sucrase-isomaltase, intestinal (Rattus norvegicus) (P23739 1014-1841 limits assumed): as the sequence (P23739 1014-1841 limits assumed) above

Bos taurus [12] = organism: Bos taurus; experiment: Inhibition of bovine liver beta-glucronidase assessed as release of p-nitrophenol at 1000 uM using p-nitrophenyl glycoside as substrate by spectrometric assay relative to control
Rattus norvegicus = organism: Rattus norvegicus; experiment: Inhibition of rat intestinal alpha-trehalase assessed as release of p-nitrophenol at 1000 uM using p-nitrophenyl glycoside as substrate by spectrometric assay relative to control
[13] = Inhibition of rice alpha-glucosidase assessed as release of p-nitrophenol using p-nitrophenyl glycoside as substrate by spectrometric assay; set-up: species or system Oryza sativa
[14] = Inhibition of yeast alpha-glucosidase assessed as release of p-nitrophenol using p-nitrophenyl glycoside as substrate by spectrometric assay; set-up: species or system Saccharomyces cerevisiae

IC50 [1]	IC50 [2]	IC50 [3]	IC50 [4]	inhibition (Prunus dulcis)	inhibition (Bos taurus [5])	inhibition [6]	inhibition [7]	inhibition [8]	inhibition (Helix pomatia)	inhibition (Penicillium decumbens)	inhibition (Saccharomyces cerevisiae)	inhibition (Sus scrofa)	inhibition (Aspergillus niger)	inhibition [9]	inhibition (Escherichia coli)	inhibition (Bos taurus [10])	inhibition (Bos taurus [12])	Compound	other results
3.7 µM	113 µM	0.68 µM	430 µM	0%														CCCCCCCCC[C@@]1(CO)NC[C@H](O)[C@H]1O	
2.4 µM	13 µM	0.23 µM	226 µM	0.9%														CCCC[C@@]1(CO)NC[C@H](O)[C@H]1O	
		1 µM		7.8%	16.7%	0%	3.3%	45.9%	0%	7.4%		0%	8.3%	0%	0%	22.6%	8.7%	Cc1ccc([C@@]2(CO)NC[C@H](O)[C@H]2O)cc1	inhibition (Rattus norvegicus): 12.9%; IC50 [13]: 697 µM; IC50 [14]: 57 µM
5.6 µM	2 µM	0.64 µM	183 µM	6.2%														C[C@@]1(CO)NC[C@H](O)[C@H]1O	
		6.5 µM		0.9%	16.7%	0%	0%	10.3%	0%	0%	41.8%	3.8%	8.3%	0%	0%	21.7%	26.2%	OC[C@@]1(c2cccc(F)c2)NC[C@@H](O)[C@@H]1O	inhibition (Oryza sativa): 1.4%; inhibition (Rattus norvegicus): 0%
16 µM		2.2 µM		6.8%	35.7%	3.8%	10.9%		0%	10.1%	12.4%	3.9%	4.7%	0.6%	4.8%	37.6%	4.3%	C[C@]1(CO)NC[C@@H](O)[C@@H]1O	

Continued, molecule first:

Compound	IC50 [1]	IC50 [2]	IC50 [3]	IC50 [4]	inhibition (Prunus dulcis)	inhibition (Bos taurus [5])	inhibition [6]	inhibition [7]	inhibition [8]	inhibition (Helix pomatia)	inhibition (Penicillium decumbens)	inhibition (Saccharomyces cerevisiae)	inhibition (Sus scrofa)	inhibition (Aspergillus niger)	inhibition [9]	inhibition (Escherichia coli)	inhibition (Bos taurus [10])	inhibition (Bos taurus [12])	other results
OC[C@]1(c2ccccc2)NC[C@H](O)[C@H]1O	0.63 µM	32 µM	0.48 µM	71 µM	0.9%														
COc1ccc([C@@]2(CO)NC[C@H](O)[C@H]2O)cc1	601 µM	650 µM	0.33 µM		7.1%	43%													
OC[C@@]1(c2ccccc2)NC[C@@H](O)[C@@H]1O					2.3%	29.6%	0%	0%	35%	0%	0%	22%	0.8%	0%	9.9%	7.3%	34.1%	1.8%	inhibition (Oryza sativa): 18.6%; inhibition [11]: 42.8%
OC[C@@]1(c2ccc(F)cc2)NC[C@@H](O)[C@@H]1O	714 µM		0.2 µM		0.6%	8.4%	6.6%	0%		0.8%	0%		4.4%	0%	0%	1.5%	8.6%	16.8%	inhibition (Rattus norvegicus): 25.8%; IC50 [13]: 646 µM; IC50 [14]: 70 µM
COc1ccc([C@]2(CO)NC[C@@H](O)[C@@H]2O)cc1			107 µM		2.7%	33.5%	0.2%	2.7%	40.2%	0%	0%	22%	3%	0%	7.5%	25%	41%	5.9%	inhibition (Oryza sativa): 37.8%
